Results published in ChEMBL document CHEMBL4184103, “Cytotoxicity and inhibition of leukemic cell proliferation by sesquiterpenes from rhizomes of Mah-Lueang (Curcuma cf. viridiflora Roxb.)” (Bioorg Med Chem Lett, 2018).
≈ marks a conversion by molar mass, not a printed value. Where “and” joins values, the source holds several entries; their conditions need not be identical. Equal entries are not always repeated.

What was measured:
[1] = system: MOLT-4; experiment: Cytotoxicity against human MOLT4 cells assessed as reduction in cell viability; type: functional, cell-based
[2] = system: KG-1a; experiment: Cytotoxicity against human KG1a cells assessed as reduction in cell viability after 48 hrs by MTT assay; type: functional, cell-based
[3] = system: MOLT-4; experiment: Cytotoxicity against human MOLT4 cells assessed as reduction in cell viability after 48 hrs by MTT assay; type: functional, cell-based
[4] = system: KG-1a; experiment: Down regulation of WT1 protein levels in human KG1a cells after 48 hrs by Western blot analysis relative to control; type: functional
[5] = system: MOLT-4; experiment: Down regulation of WT1 protein levels in human MOLT4 cells after 48 hrs by Western blot analysis relative to control; type: functional
[6] = system: MCF7; experiment: Cytotoxicity against human MCF7 cells assessed as reduction in cell viability after 72 hrs by MTT assay; type: functional, cell-based
[7] = system: PC-3; experiment: Cytotoxicity against human PC3 cells assessed as reduction in cell viability after 72 hrs by MTT assay; type: functional, cell-based
[8] = system: HT-29; experiment: Cytotoxicity against human HT-29 cells assessed as reduction in cell viability after 72 hrs by MTT assay; type: functional, cell-based
[9] = system: HUVEC; experiment: Cytotoxicity against human HUVEC cells assessed as reduction in cell viability after 72 hrs by MTT assay; type: functional, cell-based
[10] = system: KG-1a; experiment: Antiproliferative activity against human KG1a cells at IC20 after 48 hrs by trypan blue exclusion assay relative to control; type: functional
[11] = system: MOLT-4; experiment: Antiproliferative activity against human MOLT4 cells at IC20 after 48 hrs by trypan blue exclusion assay relative to control; type: functional
[12] = system: KB; experiment: Cytotoxicity against human KB cells assessed as reduction in cell viability; type: functional, cell-based
[13] = system: MCF7; experiment: Cytotoxicity against human MCF7 cells assessed as reduction in cell viability; type: functional, cell-based
[14] = system: NCI-H187; experiment: Cytotoxicity against human NCI-H187 cells assessed as reduction in cell viability; type: functional, cell-based
[15] = system: KG-1a; experiment: Potency index, ratio of doxorubicin IC50 to compound IC50 for human KG1a cells; type: functional
[16] = system: MOLT-4; experiment: Potency index, ratio of doxorubicin IC50 to compound IC50 for human MOLT4 cells; type: functional
[17] = system: HeLa; experiment: Growth inhibition of human HeLa cells after 48 hrs by MTT assay; type: functional, cell-based
[18] = system: HepG2; experiment: Growth inhibition of human HepG2 cells after 48 hrs by MTT assay; type: functional, cell-based; conditions: HepG2, 48 h
[19] = system: HL-60; experiment: Growth inhibition of human HL60 cells after 48 hrs by MTT assay; type: functional, cell-based; conditions: HL-60, 48 h
[20] = system: PC-3; experiment: Growth inhibition of human PC3 cells after 48 hrs by MTT assay; type: functional, cell-based; conditions: PC-3, 48 h
[21] = system: SGC-7901; experiment: Growth inhibition of human SGC7901 cells after 48 hrs by MTT assay; type: functional, cell-based; conditions: SGC-7901, 48 h
[22] = system: HT-1080; experiment: Growth inhibition of human HT1080 cells after 48 hrs by MTT assay; type: functional, cell-based; conditions: HT-1080, 48 h
[23] = system: Ca-Ski; experiment: Cytotoxicity against human CaSki cells assessed as reduction in cell viability after 72 hrs by MTT assay; type: functional, cell-based
[24] = system: MOLT-4; experiment: Down regulation of WT1 protein levels in human MOLT4 cells at 5 to 15 uM after 48 hrs by Western blot analysis relative to control; type: functional
[25] = Homo sapiens, MOLT-4, 48 h, read-out: IC50

How did the IC50 [1] turn out when `CC[C@]1(O)C[C@H]2CN(CCc3c([nH]c4ccccc34)[C@@](C(=O)OC)(c3cc4c(cc3OC)N(C=O)[C@H]3[C@@](O)(C(=O)OC)[C@H](OC(C)=O)[C@]5(CC)C=CCN6CC[C@]43[C@@H]65)C2)C1` [VINCRISTINE] was run?
The IC50 was 0.00063 µg/mL (≈ 0.000764 µM).

Which IC20 [2] does the source give for `CC(C)=C1C[C@@H]2O[C@@]2(C)CC/C=C(\C)CC1=O` here?
Its IC20 is 20 µg/mL (≈ 85.3 µM).

What about the IC50 [2] of the same molecule?
Its IC50 is over 100 µg/mL.

And the IC50 [3, 25]?
Its IC50 is over 100 µg/mL.

What about the IC50 ([3]; molt-4) of the same molecule?
The IC50 was 53 µg/mL (≈ 226 µM).

What about the Activity [4] of the same molecule?
Its Activity is 92.22%.

What about the Activity [5] of the same molecule?
The Activity was 62.53%.

And the IC50 ([6]; Homo sapiens, MCF7, 72 h)?
The IC50 was 37.2 µg/mL (≈ 159 µM).

And the IC50 ([7]; Homo sapiens, PC-3, 72 h)?
The IC50 was 43.9 µg/mL (≈ 187 µM).

What about the IC50 ([8]; Homo sapiens, HT-29, 72 h) of the same molecule?
The IC50 was 39.6 µg/mL (≈ 169 µM).

What about the IC50 ([9]; Homo sapiens, HUVEC, 72 h) of the same molecule?
The IC50 was 48.4 µg/mL (≈ 207 µM).

What about the Activity [10] of the same molecule?
The Activity was 24.27%.

What about the Activity [11] of the same molecule?
Its Activity is 55.7%.

How did the IC20 [2] turn out when `CC(C)=C1C[C@H]2[C@@H](CC[C@]2(C)O)[C@](C)(O)CC1=O` [ZEDOARONDIOL] was run?
The IC20 was 60 µg/mL (≈ 238 µM).

And the IC50 [2]?
The IC50 was over 100 µg/mL.

What about the IC50 [3, 25] of the same molecule?
Its IC50 is 77.6 µg/mL (≈ 308 µM).

What about the IC50 ([3]; molt-4) of the same molecule?
The IC50 was 49 µg/mL (≈ 194 µM).

What about the Activity [4] of the same molecule?
Its Activity is 95.52%.

What about the Activity [5] of the same molecule?
Its Activity is 63.17%.

What about the IC50 [12] of the same molecule?
Its IC50 is over 50 µg/mL.

And the IC50 [13]?
Its IC50 is over 50 µg/mL.

And the IC50 [14]?
Its IC50 is over 50 µg/mL.

What about the Activity [10] of the same molecule?
Its Activity is 30.48%.

And the Activity [11]?
The Activity was 48.99%.

Which IC50 [2] does the source give for `COc1cccc2c1C(=O)c1c(O)c3c(c(O)c1C2=O)C[C@@](O)(C(=O)CO)C[C@@H]3O[C@H]1C[C@H](N)[C@H](O)[C@H](C)O1` [DOXORUBICIN] here?
The IC50 was 0.65 µg/mL (≈ 1.2 µM).

And the IC50 [3, 25]?
The IC50 was 0.46 µg/mL (≈ 0.846 µM).

Which IC20 [2] does the source give for `C/C1=C\Cc2c(C)coc2C/C(C)=C/CC1` [ISOFURANODIENE] here?
Its IC20 is 25 µg/mL (≈ 116 µM).

What about the IC50 [2] of the same molecule?
The IC50 was 50.1 µg/mL (≈ 232 µM).

What about the IC50 [3, 25] of the same molecule?
The IC50 was 39.6 µg/mL (≈ 183 µM).

What about the IC50 ([3]; molt-4) of the same molecule?
Its IC50 is 23 µg/mL (≈ 106 µM).

And the “Ratio IC50” value [15]?
Its value is 77.

What about the “Ratio IC50” value [16] of the same molecule?
The value was 86.

And the Activity [4]?
The Activity was 58.08%.

What about the Activity [5] of the same molecule?
Its Activity is 32.17%.

And the IC50 [17]?
The IC50 was 0.6 to 4 µg/mL (≈ 2.77 to 18.5 µM).

What about the IC50 [18] of the same molecule?
The IC50 was 0.6 to 4 µg/mL (≈ 2.77 to 18.5 µM).

And the IC50 [19]?
The IC50 was 0.6 to 4 µg/mL (≈ 2.77 to 18.5 µM).

What about the IC50 [20] of the same molecule?
The IC50 was 0.6 to 4 µg/mL (≈ 2.77 to 18.5 µM).

And the IC50 [21]?
Its IC50 is 0.6 to 4 µg/mL (≈ 2.77 to 18.5 µM).

And the IC50 [22]?
Its IC50 is 0.6 to 4 µg/mL (≈ 2.77 to 18.5 µM).

And the Activity [10]?
Its Activity is 19.58%.

And the Activity [11]?
Its Activity is 10.74%.

`CC(C)=C1CC(=O)[C@@H](C)CC/C=C(\C)CC1=O` was tested. Which IC20 [2] did it give?
Its IC20 is 30 µg/mL (≈ 128 µM).

What about the IC50 [2] of the same molecule?
Its IC50 is over 100 µg/mL.

And the IC50 ([3]; molt-4)?
Its IC50 is > 100 µg/mL and 35 µg/mL.

And the Activity [4]?
The Activity was 44.3%.

What about the Activity [5] of the same molecule?
Its Activity is 55.25%.

What about the IC50 ([6]; mcf7) of the same molecule?
Its IC50 is 33 µg/mL (≈ 141 µM).

What about the IC50 [23] of the same molecule?
Its IC50 is 21.7 µg/mL (≈ 92.6 µM).

What about the IC50 ([7]; pc-3) of the same molecule?
The IC50 was 19.1 µg/mL (≈ 81.5 µM).

What about the IC50 ([8]; ht-29) of the same molecule?
The IC50 was 22.7 µg/mL (≈ 96.9 µM).

What about the IC50 ([9]; huvec) of the same molecule?
The IC50 was 24 µg/mL (≈ 102 µM).

And the Activity [10]?
The Activity was 19.92%.

And the Activity [11]?
The Activity was 49.44%.

`COc1cc(/C=C/C(=O)CC(=O)/C=C/c2ccc(O)c(OC)c2)ccc1O` [CURCUMIN] was tested. Which Activity [24] did it give?
The Activity was 90%.
